Twelve compounds from paper PMC10213809 (Cell Reports Medicine, 2023) can be followed below.

In series [1] the test system is CHIKV. The series is described as follows: RNA sequencing of drug-treated CHIKV-infected HFF-1 cells. The format is cell-based, Chikungunya virus. The following applies: for viral genome reads of the total reads: RNA sequencing.
For series [2], the system named is HFF-1 cells. The series can be described thus: NAD/NADH-Glo assay, intracellular NADH. The format is cell-based, human. The following applies: HFF-1, 48 hpi.
Series [3] has as its system CHIKV (strain 181/25). The series is described as follows: CHIKV arthritis mouse model.
Series [4] has as its system CHIKV (strain 181/25). The series can be described thus: Histopathology and IHC of CHIKV-infected mouse footpad. The format is in vivo.
The test system of series [5] is ZIKV. The series is classed as cell-based, Zika virus. As to conditions: HFF-1; for infectivity against ZIKV at the highest non-toxic dose: 100 μg/mL.
In series [6] the test system is CHIKV. The series is described as follows: Viral-mediated cytopathic effect / cell death in infected HFF-1 cells. The series is classed as cell-based, Chikungunya virus. As to conditions: HFF-1, 48 hpi, effective concentration. In general terms: Damage to the host cells serves as the signal in cytopathic effect assays.
Series [7] has as its system HFF-1 cells. The series can be described thus: Intracellular ATP level. The format is cell-based, human. The following applies: CHIKV-infected HFF-1, 48 hpi.
For series [8], the system named is arboviruses (CHIKV, WNV, ZIKV). The series is described as follows: qRT-PCR of viral genome replication in drug-treated fibroblasts at 48 hpi. The series is classed as cell-based.
For series [9], the system named is CHIKV. The format is cell-based, Chikungunya virus. The following applies: for inhibition of CHIKV, primary screen: HFF-1.
For series [10], the system named is WNV. The series is classed as cell-based, West Nile virus. The following applies: for infectivity against WNV at the highest non-toxic dose: 100 μg/mL; for infectivity against WNV at the highest non-toxic dose / inhibition of WNV, primary screen: HFF-1; for antiviral activity (inhibition) against WNV, primary screen: HFF-1, moderate antiviral activity.
For series [11], the system named is TBK-IRF3 signaling cascade. The format is cell-based, human. The following applies: HFF-1, pretreatment, uninfected cells.
Series [12] has as its system CHIKV. The series is classed as cell-based, Chikungunya virus. The following applies: read-out: IC50, antiviral activity against CHIKV; human fibroblasts (HFF-1), eight-dose response.
Series [13] has as its system STING-IRF3 and STING-NF-κB pathways. The format is cell-based, human. The following applies: HFF-1, 2 h post-stimulation.
The test system of series [14] is CHIKV. The series is classed as cell-based, Chikungunya virus.
Series [15] deals with RSV. The format is cell-based, respiratory syncytial virus.
For series [16], the system named is CHIKV. The series is classed as cell-based, Chikungunya virus. The source holds these as a separate data set.
Series [17] has as its system WNV. The series is classed as cell-based, West Nile virus.

“Also recorded” adds a separate entry of the source.

Usually IC50 stands for the concentration that gives 50% inhibition.

With `Nc1ncnc2c1ncn2[C@@H]1O[C@@H]2COP(=O)(O)O[C@H]3[C@@H](O)[C@H](n4cnc5c(=O)[nH]cnc54)O[C@@H]3COP(=O)(O)O[C@H]2[C@H]1O` [cAIMP], in series [1] (CHIKV-infected HFF-1), the “HEATR9 expression induced by CHIKV” value is “reversed the induction”. Also, in series [1] (CHIKV-infected HFF-1, 24 hpi), the “reduction of viral gene expression compared with untreated infected cells” value is recorded as “about 880 fold” and the “viral genome reads of the total reads” value was found to be 0.1%. In addition, the “nicotinamide adenine dinucleotide (NADH) levels” value in [2] is “increased”. Besides, the “volume of footpad swelling, chronic long-term follow-up” value in series [3] (14-month-old mice, cAIMP pretreatment, up to 2 months post-infection) is given as “significantly reduced”. The “virus replication, chronic long-term follow-up” value in series [3] (14-month-old mice, cAIMP pretreatment, up to 2 months post-infection (59 dpi)) is recorded as “significantly reduced”. Moreover, in [3] (mouse, cAIMP 10 mg/kg i.p. at 6 or 12 hpi, left footpad), the “inflammatory gene expression, therapeutic” value was “reducing”. Further, the “viral replication, therapeutic” value in series [3] (mouse, cAIMP 10 mg/kg i.p. single dose at 6 or 12 hpi) was “reducing”. In addition, the “footpad swelling, therapeutic” value in series [3] (mouse, cAIMP 10 mg/kg i.p. single dose at 6 or 12 hpi, up to 21 dpi) is “protected the animals from significant footpad swelling”. For the same compound, the “CHIKV-mediated footpad swelling, prophylactic” value in series [3] (mouse, cAIMP 10 mg/kg i.p. single dose at day -1, observed 7 days) is “significantly prevented”. Further, the body weight changes entry in series [3] (mouse, cAIMP at 6 or 12 h post-CHIKV infection) is listed as “No significant body weight changes”. Moreover, the “reduction in viral genome replication in left-rear footpad (qRT-PCR)” value in series [3] (mouse, cAIMP pretreatment 10 mg/kg i.p., day 3) is on record as 2 log. Besides, the “expression of inflammatory genes Ccl2, Il-6 and Il-10 in left footpad” value in series [3] (mouse, cAIMP-pretreated, 7 dpi) was “significant downregulation”. In series [4] (cAIMP 10 mg/kg i.p. at 6 or 12 hpi, left footpad), the “inflammatory cellular infiltration, therapeutic” value is recorded as “reducing”. Besides, the “pathological changes and left-rear footpad swelling (histopathology)” value in [4] (cAIMP pretreatment, 7 dpi) was “prevented”. In [5], the “infectivity against ZIKV at the highest non-toxic dose” value is “below-detectable infectivity”. Further, the “viral-mediated cytopathic effect (CPE)” value in series [6] was “prevented CPE”. Moreover, the “intracellular ATP” value in series [7] was “prevented ATP depletion”. Also, the “viral genome replication (qRT-PCR)” value in [8] is reported as “significantly reduced”. In series [9], the “antiviral activity, post-treatment of CHIKV-infected cells” value is recorded as “potent antiviral activity” and the “infectivity against CHIKV at the highest non-toxic dose” value is reported as “below-detectable infectivity”. Moreover, the “infectivity against WNV at the highest non-toxic dose” value in series [10] is listed as “below-detectable infectivity”. Besides, the “phosphorylation of IRF3 (western blot)” value in [11] is on record as “induced phosphorylation of IRF3”.
Take `CC(C)Cn1cnc2c(N)nc3ccccc3c21` [Imiquimod]: in [5], the “inhibition of ZIKV, primary screen” value is “potent inhibition”. In addition, the “viral genome replication (qRT-PCR)” value in series [8] is on record as “significantly reduced”. Besides, the “inhibition of CHIKV, primary screen” value in [9] was “not against CHIKV”. Also, in series [10], the “inhibition of WNV, primary screen” value was “potent inhibition” and the “antiviral activity (inhibition) against WNV, primary screen” value (from here on “antiviral activity (inhibition)”) was over 50%.
As to `CCCCCCCCCCCCCCCC(=O)OCC(CSC[C@H](N)C(=O)N[C@@H](CO)C(=O)N[C@@H](CCCCN)C(=O)N[C@@H](CCCCN)C(=O)N[C@@H](CCCCN)C(=O)N[C@@H](CCCCN)C(=O)Nc1ccc(Cn2c(O)nc3c(N)nc(NCCCC)nc32)cc1)OC(=O)CCCCCCCCCCCCCCC` (some centres unmarked) [Adilipoline(CL413)], the “effect on viral replication, primary screen (Figure 1C)” value in series [9] is listed as “enhanced viral replication”.
Regarding `Nc1ncnc2c1ncn2[C@@H]1O[C@@H]2COP(=O)(O)O[C@H]3[C@@H](O)[C@H](n4cnc5c(N)ncnc54)O[C@@H]3COP(=O)(O)O[C@H]2[C@H]1O` [c-di-AMP], the “antiviral activity (inhibition)” value in series [10] is given as over 50%.
For `CC(=O)N[C@@H]1[C@@H](O[C@H](C)C(=O)N[C@@H](C)C(=O)N[C@H](CCC(=O)O)C(N)=O)[C@H](O)[C@@H](CO)O[C@H]1O` [MDP], the “inhibition of ZIKV, primary screen” value in series [5] is on record as “potent inhibition”. For the same compound, the “inhibition of CHIKV, primary screen” value in [9] is given as “not against CHIKV”. Further, the “inhibition of WNV, primary screen” value in series [10] is recorded as “potent inhibition”.
On to `CCn1nc(C)cc1C(=O)Nc1nc2cc(C(N)=O)cc(OC)c2n1C/C=C/Cn1c(NC(=O)c2cc(C)nn2CC)nc2cc(C(N)=O)cc(OCCCN3CCOCC3)c21` [diABZI], for which the 50% inhibitory concentration (IC50) in [12] was 10.1 nM. Further, in series [6], the “viral-mediated cytopathic effect (CPE)” value is listed as “prevented CPE”. In addition, the “viral genome replication (qRT-PCR)” value in [8] is listed as “significantly reduced”. Besides, the “antiviral activity, post-treatment of CHIKV-infected cells” value in series [9] was “potent antiviral activity”. Besides, the “phosphorylation of IRF3 (western blot)” value in series [11] is on record as “induced phosphorylation of IRF3”.
With `Nc1nc2c(ncn2[C@@H]2O[C@@H]3COP(=O)(O)O[C@H]4[C@@H](O)[C@H](n5cnc6c(N)ncnc65)O[C@@H]4COP(=O)(O)O[C@H]3[C@H]2O)c(=O)[nH]1` [3'3'-cGAMP, 3′,3′-cGAMP], the “infectivity against ZIKV at the highest non-toxic dose” value in series [5] is “below-detectable infectivity”. Also, in series [6], the “viral-mediated cytopathic effect (CPE)” value is reported as “prevented CPE”. For the same compound, the “infectivity against CHIKV at the highest non-toxic dose” value in [9] is on record as “below-detectable infectivity”. Moreover, the “infectivity against WNV at the highest non-toxic dose” value in series [10] is “below-detectable infectivity”. Moreover, the “phosphorylation of IRF3 (western blot)” value in series [11] was “induced phosphorylation of IRF3”.
Regarding Scleroglucan, the “viral genome reads of the total reads” value in series [1] (CHIKV-infected HFF-1, 24 hpi) was 63%. In addition, in series [13], the “phosphorylation of IRF3 (Ser386)” value is “only a few cells have a cytoplasmic form of phospho-IRF3” and the “phosphorylation of STING (Ser366)” value was “did not have detectable levels”. In addition, in series [14], the “CHIKV productive infection / replication in PSC-CMs” value is on record as “inhibited; also recorded: moderately reducing”. For the same compound, the “viral-mediated cytopathic effect (CPE)” value in series [6] is listed as “prevented CPE”. Moreover, in series [8], the “viral genome replication (qRT-PCR)” value is “significantly reduced”. Moreover, in series [10], the “antiviral activity (inhibition)” value is recorded as over 50%. For the same compound, the “phosphorylation of IRF3 (western blot)” value in [11] is “only the basal level”.
Consider `O=c1cnn([C@@H]2O[C@H](CO)[C@@H](O)[C@H]2O)c(=O)[nH]1` [6-azauridine, 6-Azauridine], for which the “inhibition of RSV infection” value in series [15] is listed as “efficient inhibition”.
On to `Nc1nc2c(ncn2[C@@H]2O[C@@H]3COP(=O)(O)O[C@H]4[C@@H](O)[C@H](n5cnc6c(N)ncnc65)O[C@@H]4COP(=O)(O)O[C@@H]2[C@@H]3O)c(=O)[nH]1` [2'3'-cGAMP, 2′,3′-cGAMP], for which the “infectivity against ZIKV at the highest non-toxic dose” value in series [5] is listed as “below-detectable infectivity”. In addition, the “viral-mediated cytopathic effect (CPE)” value in series [6] was “prevented CPE”. Moreover, the “viral genome replication (qRT-PCR)” value in series [8] was “significantly reduced”. For the same compound, the “infectivity against CHIKV at the highest non-toxic dose” value in series [9] is given as “below-detectable infectivity”. Moreover, in [10], the “infectivity against WNV at the highest non-toxic dose” value is “below-detectable infectivity”. Also, the “phosphorylation of IRF3 (western blot)” value in series [11] is listed as “induced phosphorylation of IRF3”.
Consider `Nc1nc2c(ncn2[C@@H]2O[C@@H]3COP(=O)(O)O[C@H]4[C@@H](O)[C@H](n5cnc6c(=O)[nH]c(N)nc65)O[C@@H]4COP(=O)(O)O[C@H]3[C@H]2O)c(=O)[nH]1` [c-di-GMP], for which the “inhibition of ZIKV, primary screen” value in series [5] is “potent inhibition”. In series [9], the “effect on viral replication, primary screen (Figure 1C)” value is “enhanced viral replication” and the “inhibition of CHIKV, primary screen” value is reported as “not against CHIKV”. The “inhibition of WNV, primary screen” value in series [10] is “potent inhibition”.
With `CCC(CC)COC(=O)[C@H](C)N[P@](=O)(OC[C@H]1O[C@@](C#N)(c2ccc3c(N)ncnn23)[C@H](O)[C@@H]1O)Oc1ccccc1` [Remdesivir], in [15], the “inhibition of RSV infection” value is listed as “efficient inhibition”. Besides, in series [16], the “antiviral activity against CHIKV” value is “no effective antiviral activity; also recorded: not active”. Moreover, in series [17], the “antiviral activity against WNV” value is recorded as “no effective antiviral activity; also recorded: not active”.
